The text below walks through data of PubChem BioAssay (NCI).

“And” between values parts separate entries of the source, which are not always exact repeats. Equal values may be shown once.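 Following 48 hours of exposure in 96-well plates, responses at five concentrations were used to interpolate endpoints linearly. GI50: concentration for 50% inhibition of growth. Definition used: TGI = concentration required for complete inhibition of growth.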

Test systems include SNB-19 CNS; RXF 393 renal; IGROV1 ovarian; SK-OV-3 ovarian; HOP-18 NSCLC; SW-620 colon; A498 renal; DMS 114 small cell lung; CCRF-CEM leukemia; T-47D breast.
Common to all, as to assay: growth of human tumour cells (NCI), 48 h

Turning to `COC(=O)C1=NC(=S)NC(c2ccccc2)C1c1nc2ccccc2s1` (stereo not given), the TGI in the experiment with SNB-19 CNS, in the experiment with RXF 393 renal, in the experiment with IGROV1 ovarian, with SK-OV-3 ovarian, with HOP-18 NSCLC and in the experiment with SW-620 colon was > 100 µM in each case. The TGI in the experiment on A498 renal, with DMS 114 small cell lung and in the experiment on CCRF-CEM leukemia was > 100 µM throughout.
With `CC1=C2C(=O)O[C@@H](c3ccoc3)[C@]2(C)CCC1`, the TGI in the experiment on SNB-19 CNS, with IGROV1 ovarian, in the experiment on SK-OV-3 ovarian, in the experiment on HOP-18 NSCLC, with SW-620 colon and in the experiment with DMS 114 small cell lung was > 100 µM each time. Also, the TGI with CCRF-CEM leukemia is > 100 µM.
Consider `Cc1cccc(NC(=O)C(=O)Cc2nc3ccccc3[nH]c2=O)c1C`, for which the TGI in the experiment with SNB-19 CNS, in the experiment on RXF 393 renal, in the experiment with IGROV1 ovarian, in the experiment on SK-OV-3 ovarian, in the experiment with HOP-18 NSCLC and in the experiment with SW-620 colon was > 100 µM throughout. Besides, the TGI in the experiment with A498 renal, in the experiment with DMS 114 small cell lung and with CCRF-CEM leukemia was > 100 µM in each case.
Regarding `CCC1(O)C(=O)OCc2c1cc1n(c2=O)Cc2cc3ccc(C=O)cc3nc2-1` (stereo not given), the GI50 in the experiment on T-47D breast is 412 nM; in the experiment with SNB-19 CNS, 1670 nM; in the experiment with RXF 393 renal, 4920 nM; in the experiment with IGROV1 ovarian, 5110 nM; in the experiment with SK-OV-3 ovarian, 7.45 µM; in the experiment on A498 renal, 5390 nM. For the same molecule, in the experiment with CCRF-CEM leukemia, the GI50 was 52 nM. In addition, the TGI is 3.31 µM and 8.72 µM in the experiment with T-47D breast; 50 µM and > 100 µM in the experiment with SNB-19 CNS; 20.8 µM and 13.1 µM in the experiment with RXF 393 renal; 20 µM and 50.7 µM in the experiment on IGROV1 ovarian; 50 µM and 52.1 µM in the experiment on SK-OV-3 ovarian; > 100 µM with HOP-18 NSCLC. Also, the TGI was 50 µM and > 100 µM in the experiment on SW-620 colon; 13.5 µM and 19.5 µM in the experiment on A498 renal; 20.5 µM in the experiment on DMS 114 small cell lung; 0.37 µM and 1.14 µM in the experiment on CCRF-CEM leukemia.
`Cc1ccc2nc3c(C(=O)NCCN(C)C)cccc3nc2c1`: the TGI with SNB-19 CNS was 46.3 µM; in the experiment on RXF 393 renal, 15.5 µM; in the experiment on IGROV1 ovarian it was > 60.1 µM; with SK-OV-3 ovarian it was > 56.3 µM; in the experiment with HOP-18 NSCLC, > 87.3 µM; in the experiment on SW-620 colon it was > 35.7 µM. For the same molecule, the TGI in the experiment with A498 renal was 8.7 µM; with DMS 114 small cell lung it was 11.6 µM.
In the case of `Cc1ccc(S(=O)(=O)n2c(-c3ccccc3)c(-c3ccccc3)c3ccccc32)cc1`, the TGI in the experiment with SNB-19 CNS, with RXF 393 renal, with IGROV1 ovarian, in the experiment on SK-OV-3 ovarian, in the experiment with HOP-18 NSCLC and in the experiment with SW-620 colon was > 100 µM throughout. In addition, the TGI with DMS 114 small cell lung and in the experiment on CCRF-CEM leukemia was > 100 µM in each case.
For `COc1cc(OC(=O)c2c(O)cc(O)c(O)c2C)cc(C)c1C(=O)Oc1cc(C)c(C(=O)O)c(O)c1`, the TGI in the experiment on RXF 393 renal, with IGROV1 ovarian, with SK-OV-3 ovarian, in the experiment on HOP-18 NSCLC, in the experiment with SW-620 colon and in the experiment on A498 renal was > 100 µM throughout. Moreover, the TGI in the experiment on DMS 114 small cell lung and in the experiment on CCRF-CEM leukemia was > 100 µM in each case.
`Cc1ccc(Nc2nc3c(s2)C(=O)c2ccccc2C3=O)c(C)c1`: the TGI amounted to 27.7 µM with SNB-19 CNS; 29.6 µM with RXF 393 renal; 33.1 µM with IGROV1 ovarian; 62.5 µM in the experiment on SK-OV-3 ovarian; 20.1 µM with HOP-18 NSCLC; 43.5 µM in the experiment on SW-620 colon. Also, the TGI is > 100 µM in the experiment with A498 renal, 24.1 µM with DMS 114 small cell lung and 25.8 µM in the experiment with CCRF-CEM leukemia.
Regarding `CC(=O)OC[C@]12CC[C@H]3[C@@H](C[C@H]4O[C@]45[C@@H](O)C=CC(=O)[C@]35C)[C@@H]1CC[C@@H]2[C@H](C)[C@H]1CC(C)=C(C)C(=O)O1`, the GI50 was 700 nM and 1160 nM with SNB-19 CNS; 247 nM and 388 nM in the experiment on RXF 393 renal; 706 nM and 924 nM in the experiment on IGROV1 ovarian; 2.78 µM in the experiment with SK-OV-3 ovarian; 1050 nM with HOP-18 NSCLC; 274 nM and 141 nM in the experiment on SW-620 colon. In addition, the GI50 with A498 renal is 852 nM and 1200 nM; in the experiment with DMS 114 small cell lung it was 324 nM and 357 nM; in the experiment with CCRF-CEM leukemia it was 229 nM and 112 nM. Besides, the TGI in the experiment with SNB-19 CNS is 0.899 µM and 2.52 µM; with RXF 393 renal it was 0.791 µM and 1.13 µM; in the experiment with IGROV1 ovarian, 2.7 µM; in the experiment with SK-OV-3 ovarian, 5.98 µM; in the experiment with HOP-18 NSCLC, 2.42 µM; in the experiment on SW-620 colon it was 0.744 µM and 0.463 µM. The TGI was 2.77 µM in the experiment on A498 renal; 0.823 µM and 1.12 µM in the experiment with DMS 114 small cell lung; 0.745 µM and 1.82 µM in the experiment with CCRF-CEM leukemia.
With `COC(=O)c1cc(Br)c(Br)n1C`, the TGI with SNB-19 CNS, in the experiment with RXF 393 renal, in the experiment on IGROV1 ovarian, in the experiment on SK-OV-3 ovarian, in the experiment on HOP-18 NSCLC and with SW-620 colon was > 100 µM throughout. In addition, the TGI in the experiment on A498 renal, with DMS 114 small cell lung and in the experiment on CCRF-CEM leukemia was > 100 µM throughout.
Take `CN/N=C(/CCN1CCCC1)CC(c1ccccc1)c1c(O)c2ccccc2oc1=O` (stereo not given): the TGI with T-47D breast, in the experiment on SNB-19 CNS, in the experiment on RXF 393 renal, in the experiment on IGROV1 ovarian, with SK-OV-3 ovarian and in the experiment with HOP-18 NSCLC was > 100 µM each time. For the same molecule, the TGI in the experiment on SW-620 colon, in the experiment on A498 renal, with DMS 114 small cell lung and in the experiment on CCRF-CEM leukemia was > 100 µM throughout.
With `Cc1cc(C)nc(NS(=O)(=O)c2ccc(Nc3c4ccccc4nc4c(C(=O)Nc5ccc(S(=O)(=O)Nc6cc(C)on6)cc5)cccc34)cc2)n1`, the TGI with SNB-19 CNS was determined as 52.1 µM; in the experiment on RXF 393 renal, 38.2 µM; in the experiment on IGROV1 ovarian, 77.1 µM; in the experiment on SK-OV-3 ovarian, 61.7 µM; in the experiment with HOP-18 NSCLC, 53.4 µM; in the experiment on SW-620 colon, 51.4 µM. The TGI with A498 renal was 51.5 µM; in the experiment on DMS 114 small cell lung it was 35.3 µM.
